Experimental data taken from patent EP3789378A1, “PIPERIDINES OR PIPERIDONES SUBSTITUTED WITH UREA AND HETEROARYL” (Grünenthal GmbH, priority 2019, dated 2021).

biological target: T1, h FPR2 (Homo sapiens, UniProt P25090); assay: Agonistic activity in hFPR2-Aq-CHO cells (FLIPR Calcium 5 fluorescence assay); type: cell-based; details: 11 point half log dilution, final assay concentration from 10µM
T1 construct: expressed in transfected cells
T1 sequence (P25090 1-351): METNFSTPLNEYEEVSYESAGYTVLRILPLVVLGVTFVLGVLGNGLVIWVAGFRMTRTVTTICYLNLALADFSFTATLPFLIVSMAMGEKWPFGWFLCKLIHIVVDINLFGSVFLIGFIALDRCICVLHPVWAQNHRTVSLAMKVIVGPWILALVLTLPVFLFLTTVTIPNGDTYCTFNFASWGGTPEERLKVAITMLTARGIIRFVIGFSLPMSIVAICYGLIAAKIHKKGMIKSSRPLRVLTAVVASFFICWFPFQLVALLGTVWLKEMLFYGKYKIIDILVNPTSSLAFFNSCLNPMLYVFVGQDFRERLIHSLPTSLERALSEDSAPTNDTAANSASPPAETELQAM
Procedure, shortened: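 EC50 reflects the compound-evoked rise in Calcium 5 fluorescence over basal, recorded for 5 min on FLIPR and compared with no-compound wells. Dye-loaded hFPR2-Aq-CHO cells received half-log dilutions from 10 µM to 100 pM final in pH 7.4 HBSS buffer.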

EC50	Compound
31 nM	COCCCN1CC[C@@H](NC(=O)Nc2ccccc2)[C@H](c2ccc(OC)cn2)C1 (relative stereo) [Ex-158, trans-1-[1-(3-Methoxy-propyl)-3-(5-methoxy-pyridin-2-yl)-piperidin-4-yl]-3-phenyl-urea]
17 nM	CNCCC(=O)N1CC[C@@H](NC(=O)Nc2cc(C)ns2)[C@H](c2ccc(OC)cn2)C1 (relative stereo) [Ex-135, trans-1-[3-(5-Methoxy-pyridin-2-yl)-1-(3-methylamino-propanoyl)-piperidin-4-yl]-3-(3-methyl-isothiazol-5-yl)-urea]
0.8 nM	COc1ccc([C@@H]2CN(c3ccc(F)cc3)CC[C@H]2NC(=O)Nc2ccc(Cl)cc2)nc1 (relative stereo) [Ex-18, trans-1-(4-chloro-phenyl)-3-[1'-(4-fluoro-phenyl)-5-methoxy-1',2',3',4',5',6'-hexahydro-[2,3']bipyridinyl-4'-yl]-urea]
0.9 nM	COc1cnc([C@@H]2CN(CCCO)CC[C@H]2NC(=O)Nc2ccc(Cl)cc2)c(F)c1 (relative stereo) [Ex-197, trans-1-(4-chloro-phenyl)-3-[3-fluoro-1'-(3-hydroxy-propyl)-5-methoxy-1',2',3',4',5',6'-hexahydro-[2,3']bipyridinyl-4'-yl]-urea]
0.7 nM	COc1ccc([C@@H]2CN(CC3CC(O)C3)CC[C@H]2NC(=O)Nc2ccc(Cl)cc2)nc1 (single isomer, unassigned) [Ex-203, trans-1-(4-chloro-phenyl)-3-[1'-(3-hydroxy-cyclobutylmethyl)-5-methoxy-1',2',3',4',5',6'-hexahydro-[2,3']bipyridinyl-4'-yl]-urea]
11 nM	COc1ccc([C@@H]2CN(C(=O)C3CNC3)CC[C@H]2NC(=O)Nc2ccccc2)nc1 (racemic) [Ex-165, trans-1-[1-(Azetidine-3-carbonyl)-3-(5-methoxy-pyridin-2-yl)-piperidin-4-yl]-3-phenyl-urea]
11 nM	COc1ccc([C@@H]2CN(c3ccc(F)cc3)CC[C@H]2NC(=O)Nc2ccc(Cl)cc2)cn1 (relative stereo) [Ex-2, trans-1-(4-chloro-phenyl)-3-[1-(4-fluoro-phenyl)-6'-methoxy-1,2,3,4,5,6-hexahydro-[3,3']bipyridinyl-4-yl]-urea]
6 nM	COc1ccc([C@H]2CN(c3ccc(F)cc3)C(=O)C[C@H]2NC(=O)Nc2ccc(Cl)cc2)nc1 (relative stereo) [Ex-11, cis-1-(4-chlorophenyl)-3-[1-(4-fluorophenyl)-5-(5-methoxypyridin-2-yl)-2-oxopiperidin-4-yl]urea]
52 nM	CS(=O)(=O)n1ccc(CN2CC[C@@H](NC(=O)Nc3ccc(Cl)cc3)[C@H](c3ccc(Cl)s3)C2)n1 (single isomer, unassigned) [Ex-78, trans-1-(4-chlorophenyl)-3-[3-(5-chlorothiophen-2-yl)-1-[(1-methanesulfonyl-1H-pyrazol-3-yl)methyl]piperidin-4-yl]urea]
37 nM	COc1ccc([C@@H]2CN(CC3CCNCC3)CC[C@H]2NC(=O)Nc2ccc(Cl)cc2)nc1 (single isomer, unassigned) [Ex-82, trans-1-(4-chlorophenyl)-3-(3-(5-methoxypyridin-2-yl)-1-(piperidin-4-ylmethyl)piperidin-4-yl)urea]
5 nM	COc1ccc([C@@H]2CN(C(=O)c3ccc(C)nc3)CC[C@H]2NC(=O)Nc2ccc(C#N)cc2)nc1 (relative stereo) [Ex-128, trans-1-(4-Cyano-phenyl)-3-[3-(5-methoxy-pyridin-2-yl)-1-(6-methyl-pyridine-3-carbonyl)-piperidin-4-yl]-urea]
0.09 nM	COc1ccc([C@@H]2CN(CC3(C#N)CC3)CC[C@H]2NC(=O)Nc2ccc(Cl)cc2)nc1 (relative stereo) [Ex-155, trans-1-(4-Chlorophenyl)-3-[1-[(1-cyano-cyclopropyl)-methyl]-3-(5-methoxy-pyridin-2-yl)-piperidin-4-yl]-urea]
0.2 nM	COc1ccc([C@@H]2CN(Cc3cnc(OC)nc3)CC[C@H]2NC(=O)Nc2ccc(Cl)cc2)nc1 (relative stereo) [Ex-66, trans-1-(4-chlorophenyl)-3-[3-(5-methoxypyridin-2-yl)-1-[(2-methoxypyrimidin-5-yl)methyl]piperidin-4-yl]urea]

The next lines start with the molecule.

Compound	EC50
COc1ccc([C@@H]2CN(C(=O)c3ccc(C)nc3)CC[C@H]2NC(=O)Nc2ccc(Cl)cc2)nc1 (single isomer, unassigned) [Ex-55, trans-1-(4-chlorophenyl)-3-[3-(5-methoxypyridin-2-yl)-1-[(6-methylpyridin-3-yl)carbonyl]piperidin-4-yl]urea]	40 nM
O=C(Nc1ccc(Cl)cc1)N[C@@H]1CC(=O)N(c2ccc(F)cc2)C[C@H]1c1ccc(Cl)cn1 (relative stereo) [Ex-14, trans-1-(4-chlorophenyl)-3-[5-(5-chloropyridin-2-yl)-1-(4-fluorophenyl)-2-oxopiperidin-4-yl]urea]	0.4 nM
COc1ccc([C@@H]2CN(C(=O)c3ccc(C)nc3)CC[C@H]2NC(=O)Nc2ccc(Cl)cc2)nc1 (single isomer, unassigned) [Ex-54, trans-1-(4-chlorophenyl)-3-[3-(5-methoxypyridin-2-yl)-1-[(6-methylpyridin-3-yl)carbonyl]piperidin-4-yl]urea]	0.6 nM
COc1ccc([C@@H]2CN(C(=O)C3CC(O)C3)CC[C@H]2NC(=O)Nc2cc(C)ns2)nc1 (single isomer, unassigned) [Ex-183, trans-1-[1'-(3-hydroxy-cyclobutanecarbonyl)-5-methoxy-1',2',3',4',5',6'-hexahydro-[2,3']bipyridinyl-4'-yl]-3-(3-methyl-isothiazol-5-yl)-urea]	89 nM
COc1ccc([C@@H]2CN(C(C)(C)CO)CC[C@H]2NC(=O)Nc2ccc(Cl)cc2)nc1 (relative stereo) [Ex-219, trans-1-(4-chloro-phenyl)-3-[1'-(2-hydroxy-1,1-dimethyl-ethyl)-5-methoxy-1',2',3',4',5',6'-hexahydro-[2,3']bipyridinyl-4'-yl]-urea]	38 nM
COc1ccc([C@H]2CN(c3ccc(F)cc3)C(=O)C[C@H]2NC(=O)Nc2ccc(Cl)cc2)cn1 (relative stereo) [Ex-6, cis-1-(4-chlorophenyl)-3-[1-(4-fluorophenyl)-5-(6-methoxypyridin-3-yl)-2-oxopiperidin-4-yl]urea]	6 nM
COc1ccc([C@@H]2CN(C(=O)C3CCC(O)CC3)CC[C@H]2NC(=O)Nc2ccc(Cl)cc2)nc1 (relative stereo) [Ex-90, trans-1-(4-chloro-phenyl)-3-[1'-(4-hydroxy-cyclohexanecarbonyl)-5-methoxy-1',2',3',4',5',6'-hexahydro-[2,3']bipyridinyl-4'-yl]-urea]	32 nM
O=C(Nc1ccc(Cl)cc1)N[C@@H]1CCN(c2ccncn2)C[C@H]1c1ccc(Cl)cn1 (relative stereo) [Ex-9, trans-1-(4-chloro-phenyl)-3-(5-chloro-1'-pyrimidin-4-yl-1',2',3',4',5',6'-hexahydro-[2,3']bipyridinyl-4'-yl)-urea]	2 nM
COc1ccc([C@@H]2CN(c3ccncn3)CC[C@H]2NC(=O)Nc2ccc(Cl)cc2)nc1 (relative stereo) [Ex-7, trans-1-(4-chloro-phenyl)-3-(5-methoxy-1'-pyrimidin-4-yl-1',2',3',4',5',6'-hexahydro-[2,3']bipyridinyl-4'-yl)-urea]	0.4 nM
COc1ccc([C@@H]2CN(Cc3cc(C)on3)CC[C@H]2NC(=O)Nc2ccc(Cl)cc2)nc1 (single isomer, unassigned) [Ex-29, trans-1-(4-chlorophenyl)-3-[3-(5-methoxypyridin-2-yl)-1-[(5-methyl-1,2-oxazol-3-yl)methyl]piperidin-4-yl]urea]	11 nM
COCCCN1CC[C@@H](NC(=O)Nc2ccc(Cl)cc2)[C@H](c2ncc(OC)cc2F)C1 (relative stereo) [Ex-193, trans-1-(4-chlorophenyl)-3-[3-fluoro-5-methoxy-1'-(3-methoxy-propyl)-1',2',3',4',5',6'-hexahydro-[2,3']bipyridinyl-4'-yl]-urea]	1 nM
COc1ccc([C@@H]2CN(C3COC3)CC[C@H]2NC(=O)Nc2cc(C)ns2)nc1 (relative stereo) [Ex-133, trans-1-[3-(5-Methoxy-pyridin-2-yl)-1-(oxetan-3-yl)-piperidin-4-yl]-3-(3-methyl-isothiazol-5-yl)-urea]	13 nM

same assay, conditions: agonistic response at 0.1µM

activation at 0.1 µM	Compound
41%	COCCC(=O)N1CC[C@@H](NC(=O)Nc2ccc(Cl)cc2)[C@H](c2ccc(Cl)s2)C1 (relative stereo) [Ex-106, trans-1-(4-chloro-phenyl)-3-[3-(5-chloro-thiophen-2-yl)-1-(3-methoxy-propionyl)-piperidin-4-yl]-urea]
3%	COc1ccc([C@@H]2CN(CC(N)=O)CC[C@H]2NC(=O)Nc2ccc(Cl)cc2)nc1 (relative stereo) [Ex-171, trans-2-[4-[[(4-Chlorophenyl)-carbamoyl]amino]-3-(5-methoxy-pyridin-2-yl)-piperidin-1-yl]-acetamide]
44%	Cc1cc(NC(=O)N[C@@H]2CCN(Cc3ncccn3)C[C@H]2c2ccc(Cl)s2)sn1 (relative stereo) [Ex-63, trans-1-[3-(5-chlorothiophen-2-yl)-1-(pyrimidin-2-ylmethyl)piperidin-4-yl]-3-(3-methyl-1,2-thiazol-5-yl)urea]
